For assay [1], the species on record is Homo sapiens. The assay is described as follows: (§1) Inhibition of NF-kappaB (unknown origin) expressed in human L428 cells after 2 hrs by luciferase reporter gene assay. The class given is cell-based. On the technique in general: In a reporter assay the amount or activity of a reporter protein is the signal.
For assay [2], the system named is L-428. The assay is described as follows: Inhibition of NFkappaB RelB subunit expression in cytosolic fractions of human L428 cells at 2.5 ug/ml after 2 hrs by Western method. The class given is functional, cell-based.
Assay [3] has as its system L-428. The assay is described as follows: Inhibition of NFkappaB p50 subunit expression in cytosolic fractions of human L428 cells at 2.5 ug/ml after 2 hrs by Western method. The assay is classed as functional, cell-based.
Assay [4] in a line: as §1. The class given is cell-based. The conditions noted are these: L-428, 2 h.
In assay [5] the test system is L-428. The assay is described as follows: Inhibition of NFkappaB p65 subunit expression in nuclear fractions of human L428 cells at 2.5 ug/ml after 2 hrs by Western method. The assay is classed as functional, cell-based.
For assay [6], the system named is L-428. The assay is described as follows: Inhibition of NFkappaB p50 subunit expression in nuclear fractions of human L428 cells at 2.5 ug/ml after 2 hrs by Western method. The assay is classed as functional, cell-based.
Assay [7] deals with L-428. The assay is described as follows: Inhibition of NFkappaB p65 subunit expression in cytosolic fractions of human L428 cells at 2.5 ug/ml after 2 hrs by Western method. The assay is classed as functional, cell-based.
Assay [8] concerns L-428. The assay is described as follows: Cytotoxicity against human L428 cells after 48 by XTT assay. The assay is classed as functional, cell-based. (Tetrazolium assays rely on reduction of a dye to a coloured formazan, in cell work by metabolically active cells.)
Assay [9] deals with A549. The assay is described as follows: Anti-migratory activity against human A549 cells assessed as reduction in wound closure at 5.6 uM after 48 hrs by wound-scratch assay. The assay is classed as functional, cell-based.
The test system of assay [10] is L-428. The assay is described as follows: Inhibition of NFkappaB RelB subunit expression in nuclear fractions of human L428 cells at 2.5 ug/ml after 2 hrs by Western method. The class given is functional, cell-based.
Assay [11] relates to L-428. The assay is described as follows: Cytotoxicity against human L428 cells after 24 by XTT assay. The assay is classed as functional, cell-based.
The test system of assay [12] is A549. The assay is described as follows: Anti-migratory activity against human A549 cells assessed as reduction in wound closure at 2.6 uM after 48 hrs by wound-scratch assay. The class given is functional, cell-based.
For assay [13], the system named is A549. The assay is described as follows: Anti-migratory activity against human A549 cells assessed as reduction in wound closure at 7.94 uM after 48 hrs by wound-scratch assay. The class given is functional, cell-based.

Activity calls are given as the source filed them. The rule behind the calls is not given here.

Turning to `CCCCCCCCCC(=O)CC(=O)N[C@H]1CCOC1=O`, in assay [1], the inhibition result is “Dose-dependent effect”.
The IC50 is the point on the concentration scale where inhibition reaches its midpoint. The low end stands for greater potency, the high end for weaker potency. Turning to `O=C(CCCCCCCCCN=C=S)CC(=O)N[C@H]1CCOC1=O`, the inhibition result in [2], in [3], in assay [5], in assay [6], in assay [7] and in assay [10] was “Active” throughout. Further, the IC50 in [4] was 4.1 µM; in [8], 12.4 µM; in assay [11] it was 13.3 µM. Further, the inhibition result in assay [1] was “Dose-dependent effect”. Moreover, the outcome in [9] was Active.
Consider `CCCCCCCc1[nH]c2ccccc2c(=O)c1O`, for which, in assay [1], the inhibition result is “Dose-dependent effect”.
As to `O=C(CCCCCCCC(Cl)CN=C=S)CC(=O)N[C@H]1CCOC1=O` (some centres undefined), the inhibition entry in assay [2], in assay [3], in assay [5], in [6], in assay [7] and in assay [10] was “Active” throughout. The IC50 in [4] worked out at 12.8 µM; in assay [8] it was 18.3 µM; in assay [11] it was 15.1 µM. Further, the inhibition result in assay [1] was “Dose-dependent effect”. For the same compound, the outcome in assay [12] was Active.
As for `CCCC(=O)N[C@H]1CCOC1=O`, the inhibition entry in [1] was “Dose-dependent effect”.
`CCCCCCCCCCCN=C=S`: the inhibition entry in assay [1] was “Dose-dependent effect”.
The same measure, in the same setting: then `COc1cc(/C=C/C(=O)CC(=O)/C=C/c2ccc(O)c(OC)c2)ccc1O`, with “Active”; and `C#CCCCCCCCCC(=O)CC(=O)N[C@H]1CCOC1=O`, with “Dose-dependent effect”.
Turning to `O=C1C=C(Br)/C(=C/Br)O1`, the inhibition entry in [2], in assay [3], in assay [5], in [6], in assay [7] and in assay [10] was “Active” throughout. In addition, the half-inhibitory concentration (IC50) stood at 9.9 µM in assay [4], 3.05 µM in [8] and 5.16 µM in [11]. In addition, the inhibition entry in assay [1] was “Dose-dependent effect”. The outcome in assay [13] was Active.

The record behind these values is ChEMBL document CHEMBL4033709, “Quorum sensing modulators exhibit cytotoxicity in Hodgkin's lymphoma cells and interfere with NF-κB signaling” (Bioorg Med Chem Lett, 2017).
